Laboratory results taken from the CheMixHub drug solubility set.

Assay: xn = mol fraction of the nth substance listed, in the solute-free solvent

c1ccc2[nH]c(-c3cscn3)nc2c1 + CCCO + O
solubility (g/100 g solution)
Settings | 283.15 K | 288.15 K | 293.15 K | 298.15 K | 303.15 K | 308.15 K | 313.15 K | 318.15 K | 323.15 K
x2 = 0.03225 | 0.00325 | 0.00407 | 0.00514 | 0.00634 | 0.00789 | 0.00974 | 0.0118 | 0.0143 | 0.0173
x2 = 0.06974 | 0.0139 | 0.017 | 0.021 | 0.0263 | 0.0319 | 0.0383 | 0.0458 | 0.0545 | 0.0646
x2 = 0.1139 | 0.0334 | 0.0402 | 0.0487 | 0.0585 | 0.0703 | 0.0828 | 0.0976 | 0.116 | 0.136
x2 = 0.1666 | 0.0767 | 0.09 | 0.106 | 0.122 | 0.142 | 0.162 | 0.188 | 0.212 | 0.242
x2 = 0.2307 | 0.141 | 0.163 | 0.188 | 0.216 | 0.249 | 0.284 | 0.321 | 0.365 | 0.413
x2 = 0.3103 | 0.21 | 0.243 | 0.282 | 0.322 | 0.367 | 0.415 | 0.47 | 0.525 | 0.592
x2 = 0.4117 | 0.291 | 0.331 | 0.38 | 0.435 | 0.497 | 0.563 | 0.633 | 0.707 | 0.794
x2 = 0.5454 | 0.37 | 0.423 | 0.483 | 0.545 | 0.62 | 0.699 | 0.785 | 0.879 | 0.983
x2 = 0.7297 | 0.425 | 0.482 | 0.553 | 0.623 | 0.708 | 0.79 | 0.883 | 0.986 | 1.1

CC(C)=CCCC(C)C1CCC2(C)C3=C(CCC12C)C1(C)CCC(O)C(C)(C)C1CC3 (stereo unspecified) + CCO + O
solubility (g/100 g solution)
Settings | 278.15 K | 288.15 K | 298.15 K | 308.15 K | 318.15 K
x2 = 0.01604 | 3.88e-05 | 6.47e-05 | 0.000106 | 0.000176 | 0.000263
x2 = 0.1154 | 0.000122 | 0.000181 | 0.000283 | 0.000357 | 0.000444
x2 = 0.3147 | 0.000276 | 0.000461 | 0.000699 | 0.00134 | 0.00191
x2 = 0.7415 | 0.245 | 0.366 | 0.512 | 0.754 | 0.839
